From patent US20240109917A1 (ACTELION PHARMACEUTICALS LTD, priority 2020, published 2024)

Legend:
[1] = biological target: His6-TEV-PDGFRβ (557-1016) (Homo sapiens (Human), UniProt P09619); assay: PDGFRβ HTRF Assay; type: biochemical; details: read-out: PDGFR HTRF IC50
Outline: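 HTRF KinEASE-TK readout (665/620 nm ratio) of TK-biotin substrate phosphorylation by His-tagged PDGFRβ kinase domain. Enzyme and inhibitor preincubated 30 min, then ATP/substrate added for 3 h at room temperature before 60 min EDTA quench/detection.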

[2] = biological target: Tb-labeled inactive PDGFRβ (Homo sapiens (Human), UniProt P09619); assay: PDGFRβ LanthaScreen Assay; type: binding; details: read-out: PDGFR Lantha IC50
Sequence of Tb-labeled inactive PDGFRβ (P09619 33-1106): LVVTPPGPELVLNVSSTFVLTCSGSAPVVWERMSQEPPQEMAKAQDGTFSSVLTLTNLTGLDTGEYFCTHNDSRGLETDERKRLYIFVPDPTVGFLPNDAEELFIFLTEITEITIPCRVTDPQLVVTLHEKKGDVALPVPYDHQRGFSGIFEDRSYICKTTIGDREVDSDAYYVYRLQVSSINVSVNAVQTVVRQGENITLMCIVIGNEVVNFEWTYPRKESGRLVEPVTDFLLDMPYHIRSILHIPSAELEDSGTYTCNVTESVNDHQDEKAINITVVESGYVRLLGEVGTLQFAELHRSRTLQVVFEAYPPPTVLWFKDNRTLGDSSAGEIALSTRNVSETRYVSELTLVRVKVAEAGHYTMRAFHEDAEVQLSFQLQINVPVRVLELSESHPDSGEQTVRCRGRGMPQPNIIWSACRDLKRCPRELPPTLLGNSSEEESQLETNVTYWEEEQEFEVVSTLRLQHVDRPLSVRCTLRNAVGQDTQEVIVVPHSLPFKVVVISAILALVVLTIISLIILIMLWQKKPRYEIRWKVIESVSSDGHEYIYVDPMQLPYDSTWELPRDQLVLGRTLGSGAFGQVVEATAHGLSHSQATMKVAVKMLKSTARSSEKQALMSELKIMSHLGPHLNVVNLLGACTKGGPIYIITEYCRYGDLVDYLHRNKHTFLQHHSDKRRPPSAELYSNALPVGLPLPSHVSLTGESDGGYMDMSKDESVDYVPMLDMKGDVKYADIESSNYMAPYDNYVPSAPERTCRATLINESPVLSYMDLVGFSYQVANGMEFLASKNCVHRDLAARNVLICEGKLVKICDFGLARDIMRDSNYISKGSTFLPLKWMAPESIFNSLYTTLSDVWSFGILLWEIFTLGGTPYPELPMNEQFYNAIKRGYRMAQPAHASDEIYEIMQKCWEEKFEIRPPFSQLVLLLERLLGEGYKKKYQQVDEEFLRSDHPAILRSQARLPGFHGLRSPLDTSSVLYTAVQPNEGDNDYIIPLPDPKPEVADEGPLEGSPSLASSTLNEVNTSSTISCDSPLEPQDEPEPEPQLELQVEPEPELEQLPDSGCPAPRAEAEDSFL

[3] = biological target: VEGFR2, unphosphorylated (Homo sapiens (Human), UniProt P35968); assay: VEGFR ADP GLO Assay; type: biochemical
Sequence of VEGFR2, unphosphorylated (P35968 20-1356): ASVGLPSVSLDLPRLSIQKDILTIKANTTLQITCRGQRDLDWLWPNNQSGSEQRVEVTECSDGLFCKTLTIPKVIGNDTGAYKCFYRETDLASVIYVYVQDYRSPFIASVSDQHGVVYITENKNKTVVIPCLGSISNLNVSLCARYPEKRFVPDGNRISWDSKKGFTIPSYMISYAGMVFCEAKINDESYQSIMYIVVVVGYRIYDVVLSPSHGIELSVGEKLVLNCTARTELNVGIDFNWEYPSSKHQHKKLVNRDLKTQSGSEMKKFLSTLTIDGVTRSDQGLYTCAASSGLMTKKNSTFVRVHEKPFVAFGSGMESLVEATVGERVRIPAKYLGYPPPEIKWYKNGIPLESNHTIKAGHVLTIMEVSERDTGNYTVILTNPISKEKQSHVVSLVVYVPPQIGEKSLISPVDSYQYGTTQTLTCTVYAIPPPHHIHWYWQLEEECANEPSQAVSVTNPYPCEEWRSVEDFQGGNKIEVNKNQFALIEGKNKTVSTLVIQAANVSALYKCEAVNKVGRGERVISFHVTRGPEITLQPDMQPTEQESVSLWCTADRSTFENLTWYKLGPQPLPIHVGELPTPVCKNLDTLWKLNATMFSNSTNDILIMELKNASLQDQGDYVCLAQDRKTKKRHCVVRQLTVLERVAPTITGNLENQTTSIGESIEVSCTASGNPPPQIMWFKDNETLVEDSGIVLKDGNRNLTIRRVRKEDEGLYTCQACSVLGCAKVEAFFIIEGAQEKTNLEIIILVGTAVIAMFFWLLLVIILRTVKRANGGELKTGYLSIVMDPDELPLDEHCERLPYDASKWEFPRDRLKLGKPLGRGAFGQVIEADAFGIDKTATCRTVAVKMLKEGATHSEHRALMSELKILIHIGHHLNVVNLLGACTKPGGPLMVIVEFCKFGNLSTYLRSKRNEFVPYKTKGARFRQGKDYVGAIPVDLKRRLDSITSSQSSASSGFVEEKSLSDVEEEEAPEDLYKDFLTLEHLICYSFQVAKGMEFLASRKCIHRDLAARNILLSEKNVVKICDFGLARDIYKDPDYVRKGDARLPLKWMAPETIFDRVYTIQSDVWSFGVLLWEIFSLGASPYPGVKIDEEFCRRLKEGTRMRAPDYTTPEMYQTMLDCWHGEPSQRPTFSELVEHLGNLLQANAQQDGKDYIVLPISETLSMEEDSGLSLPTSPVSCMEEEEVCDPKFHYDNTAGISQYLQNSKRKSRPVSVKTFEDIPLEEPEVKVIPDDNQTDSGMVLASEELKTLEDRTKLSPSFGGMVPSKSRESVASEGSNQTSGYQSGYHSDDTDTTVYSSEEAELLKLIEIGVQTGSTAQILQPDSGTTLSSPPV

Sequence of His6-TEV-PDGFRβ (557-1016) (P09619 557-1016): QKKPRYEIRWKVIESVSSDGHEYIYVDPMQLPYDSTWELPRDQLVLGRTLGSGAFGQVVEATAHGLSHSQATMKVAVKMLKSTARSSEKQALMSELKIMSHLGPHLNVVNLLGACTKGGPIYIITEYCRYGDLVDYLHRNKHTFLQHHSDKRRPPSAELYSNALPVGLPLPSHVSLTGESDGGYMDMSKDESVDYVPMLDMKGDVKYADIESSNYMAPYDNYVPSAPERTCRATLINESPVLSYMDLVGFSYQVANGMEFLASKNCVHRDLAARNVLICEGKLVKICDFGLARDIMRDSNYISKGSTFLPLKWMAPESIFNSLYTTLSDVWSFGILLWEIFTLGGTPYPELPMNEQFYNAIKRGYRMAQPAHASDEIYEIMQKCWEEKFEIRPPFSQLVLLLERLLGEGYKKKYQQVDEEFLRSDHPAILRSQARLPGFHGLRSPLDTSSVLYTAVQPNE

Structure (SMILES) | IC50 [1] | IC50 [2] | IC50 [3]
Cc1ncc(NC(=O)CN2CC(C)(C)C2)cc1NC(=O)c1cnn2cc(-c3cnn(CCS(C)(=O)=O)c3)sc12 [Example 435, N-(5-(2-(3,3-Dimethylazetidin-1-yl)acetamido)-2-methylpyridin-3-yl)-2-(1-(2-(methylsulfonyl)ethyl)-1H-pyrazol-4-yl)pyrazolo[5,1-b]thiazole-7-carboxamide] | 0.6 nM | 6.8 nM | > 7500 nM
Cc1ncc(NC(=O)CN2CCCCCC2)cc1NC(=O)c1cnn2cc(-c3cnn4c3OCCC4)sc12 [Example 420, N-(5-(2-(azepan-1-yl)acetamido)-2-methylpyridin-3-yl)-2-(6,7-dihydro-5H-pyrazolo[5,1-b][1,3]oxazin-3-yl)pyrazolo[5,1-b]thiazole-7-carboxamide] | 0.2 nM | 2.1 nM | > 7500 nM
Cc1ncc(NC(=O)CN2CC3(CCCCO3)C2)cc1NC(=O)c1cnn2cc(-c3cnn4c3OCCC4)sc12 [Example 423, N-(5-(2-(5-oxa-2-azaspiro[3.5]nonan-2-yl)acetamido)-2-methylpyridin-3-yl)-2-(6,7-dihydro-5H-pyrazolo[5,1-b][1,3]oxazin-3-yl)pyrazolo[5,1-b]thiazole-7-carboxamide] | 0.4 nM | 3.7 nM | > 7500 nM
COCCn1cc(-c2cn3ncc(C(=O)Nc4cc(NC(=O)CCC5CCCN5C(C)C)cnc4C)c3s2)cn1 (stereo not drawn) [Example 463, N-(5-(3-(1-isopropylpyrrolidin-2-yl)propanamido)-2-methylpyridin-3-yl)-2-(1-(2-methoxyethyl)-1H-pyrazol-4-yl)pyrazolo[5,1-b]thiazole-7-carboxamide] | 0.7 nM | 11 nM | > 7500 nM
Cc1ncc(NC(=O)CN2CCC23CCC3)cc1NC(=O)c1cnn2cc(-c3cnn4c3OCCC4)sc12 [Example 408, N-(5-(2-(1-azaspiro[3.3]heptan-1-yl)acetamido)-2-methylpyridin-3-yl)-2-(6,7-dihydro-5H-pyrazolo[5,1-b][1,3]oxazin-3-yl)pyrazolo[5,1-b]thiazole-7-carboxamide] | 0.2 nM | 1.8 nM | > 7500 nM
Cc1cc(C(=O)NCCN2CCCC2(C)C)sc1NC(=O)c1cnn2cc(-c3cccnc3)sc12 [Example 36, N-(5-((2-(2,2-dimethylpyrrolidin-1-yl)ethyl)carbamoyl)-3-methylthiophen-2-yl)-2-(pyridin-3-yl)pyrazolo[5,1-b]thiazole-7-carboxamide] | 0.5 nM | 19.3 nM | > 7500 nM
Cc1ncc(NC(=O)CN2CCCC2(C)C)cc1NC(=O)c1cnn2cc(-c3cccnc3OCCF)sc12 [Example 448, N-(5-(2-(2,2-dimethylpyrrolidin-1-yl)acetamido)-2-methylpyridin-3-yl)-2-(2-(2-fluoroethoxy)pyridin-3-yl)pyrazolo[5,1-b]thiazole-7-carboxamide] | 0.2 nM | 1.8 nM | > 7500 nM
Cc1ncc(NC(=O)CN2C[C@@H](C)O[C@H](C)C2)cc1NC(=O)c1cnn2cc(-c3cn(C)nc3C)sc12 [Example 431] | 0.5 nM | 3.5 nM | > 7500 nM
Cc1ncc(C(=O)NCCN2CC3CCC2CC3)cc1NC(=O)c1cnn2cc(-c3cnn4c3OCCC4)sc12 [Example 477, N-(5-((2-(2-azabicyclo[2.2.2]octan-2-yl)ethyl)carbamoyl)-2-methylpyridin-3-yl)-2-(6,7-dihydro-5H-pyrazolo[5,1-b][1,3]oxazin-3-yl)pyrazolo[5,1-b]thiazole-7-carboxamide] | 0.3 nM | 2.3 nM | > 7500 nM
Cc1ncc(NC(=O)CN2CCCC23CCC3)cc1NC(=O)c1cnn2cc(-c3cnn4c3COCC4)sc12 [Example 417, N-(5-(2-(5-azaspiro[3.4]octan-5-yl)acetamido)-2-methylpyridin-3-yl)-2-(6,7-dihydro-4H-pyrazolo[5,1-c][1,4]oxazin-3-yl)pyrazolo[5,1-b]thiazole-7-carboxamide] | 0.4 nM | 2.8 nM | > 7500 nM
Cc1ncc(C(=O)NCCN2CC3CCC2CC3)cc1NC(=O)c1cnn2cc(-c3cnn4c3COCC4)sc12 [Example 459, N-(5-((2-(2-azabicyclo[2.2.2]octan-2-yl)ethyl)carbamoyl)-2-methylpyridin-3-yl)-2-(6,7-dihydro-4H-pyrazolo[5,1-c][1,4]oxazin-3-yl)pyrazolo[5,1-b]thiazole-7-carboxamide] | 0.3 nM | 1.5 nM | > 7500 nM
CCCNCC(=O)Nc1cnc(C)c(NC(=O)c2cnn3cc(-c4cnn5c4OCCC5)sc23)c1 [Example 455, 2-(6,7-dihydro-5H-pyrazolo[5,1-b][1,3]oxazin-3-yl)-N-(2-methyl-5-(2-(propylamino)acetamido)pyridin-3-yl)pyrazolo[5,1-b]thiazole-7-carboxamide] | 0.6 nM | 3.3 nM | > 7500 nM
Cc1ncc(NC(=O)CN2CC3(COC3)C2)cc1NC(=O)c1cnn2cc(-c3cnn4c3OCCC4)sc12 [Example 411, N-(5-(2-(2-oxa-6-azaspiro[3.3]heptan-6-yl)acetamido)-2-methylpyridin-3-yl)-2-(6,7-dihydro-5H-pyrazolo[5,1-b][1,3]oxazin-3-yl)pyrazolo[5,1-b]thiazole-7-carboxamide] | 0.5 nM | 6.6 nM | > 7500 nM
Cc1cc(C(=O)NCCN2CCCC23CC3)sc1NC(=O)c1cnn2cc(-c3cnn(C)c3)sc12 [Example 37, N-(5-((2-(4-azaspiro[2.4]heptan-4-yl)ethyl)carbamoyl)-3-methylthiophen-2-yl)-2-(1-methyl-1H-pyrazol-4-yl)pyrazolo[5,1-b]thiazole-7-carboxamide] | 22.8 nM | 892 nM | > 7500 nM
Cc1ncc(C(=O)NCCN2CC(C)(C)C2)cc1NC(=O)c1cnn2cc(-c3cnn4c3CCC4)sc12 [Example 482, 2-(5,6-dihydro-4H-pyrrolo[1,2-b]pyrazol-3-yl)-N-(5-((2-(3,3-dimethylazetidin-1-yl)ethyl)carbamoyl)-2-methylpyridin-3-yl)pyrazolo[5,1-b]thiazole-7-carboxamide] | 0.2 nM | 1.6 nM | > 7500 nM
Cc1ncc(NC(=O)CC2CNC2)cc1NC(=O)c1cnn2cc(-c3cnn4c3CCC4)sc12 [Example 426, N-(5-(2-(azetidin-3-yl)acetamido)-2-methylpyridin-3-yl)-2-(5,6-dihydro-4H-pyrrolo[1,2-b]pyrazol-3-yl)pyrazolo[5,1-b]thiazole-7-carboxamide] | 11.5 nM | 482 nM | > 7500 nM
Cc1ncc(NC(=O)CN2CCCC2(C)C)cc1NC(=O)c1cnn2cc(-c3cnn4c3COCC4)sc12 [Example 458, 2-(6,7-dihydro-4H-pyrazolo[5,1-c][1,4]oxazin-3-yl)-N-(5-(2-(2,2-dimethylpyrrolidin-1-yl)acetamido)-2-methylpyridin-3-yl)pyrazolo[5,1-b]thiazole-7-carboxamide] | 0.3 nM | 1.7 nM | > 7500 nM
Cc1ncc(C(=O)NCCN2CC(C)(C)C2)cc1NC(=O)c1cnn2cc(-c3cnn4c3OCCC4)sc12 [Example 479, 2-(6,7-dihydro-5H-pyrazolo[5,1-b][1,3]oxazin-3-yl)-N-(5-((2-(3,3-dimethylazetidin-1-yl)ethyl)carbamoyl)-2-methylpyridin-3-yl)pyrazolo[5,1-b]thiazole-7-carboxamide] | 0.3 nM | 2 nM | > 7500 nM
